In ChEMBL document CHEMBL1201862, “PubChem BioAssay data set” (2004):
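Test compounds were applied to cells in 96-well plates for 48 hours at 5 doses. GI50 is the concentration that inhibits growth by half.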 Activity calls are given as the source filed them. Cut-off read from the data, not from the text of the source: active = GI50 up to about 1.1 µM and inactive = higher.

Legend:
Assay in all cases: NCI anticancer screen, dose series, 48 h
[1] = test system: A549
[2] = test system: HCC 2998
[3] = test system: HL-60
[4] = test system: HOP-62
[5] = test system: LOX IMVI
[6] = test system: MDA-MB-435
[7] = test system: NCI-H226
[8] = test system: NCI-H522
[9] = test system: OVCAR-3
[10] = test system: OVCAR-4
[11] = test system: OVCAR-5
[12] = test system: PC-3
[13] = test system: RXF 393
[14] = test system: SNB-19
[15] = test system: SR
[16] = test system: SW-620
[17] = test system: T47D
[18] = test system: UACC-257
[19] = test system: UACC-62
[20] = test system: UO-31

SMILES | GI50 [1] | GI50 [2] | GI50 [3] | GI50 [4] | GI50 [5] | GI50 [6] | GI50 [7] | GI50 [8] | GI50 [9] | GI50 [10] | GI50 [11] | GI50 [12] | GI50 [13] | GI50 [14] | GI50 [15] | GI50 [16] | GI50 [17] | GI50 [18] | GI50 [19] | GI50 [20]
O=S(=O)(/C=C/C=C/S(=O)(=O)c1ccccc1)c1ccccc1 | 9.27 µM (inactive) | 11.5 µM (inactive) | 0.256 µM (active) | 6.76 µM (inactive) | 0.713 µM (active) | 1.45 µM (inactive) | 7.62 µM (inactive) | 0.174 µM (active) | 0.721 µM (active) | 1.65 µM (inactive) | 7.83 µM (inactive) | 4.68 µM (inactive) | 0.36 µM (active) | 17.5 µM (inactive) | 0.285 µM (active) | 0.172 µM (active) | 1.04 µM (active) | 0.733 µM (active) | 0.721 µM (active) | 1.46 µM (inactive)
Nc1ccccc1C(=O)NC(=O)Nc1ccc(Oc2ncc(Br)cn2)c(Cl)c1 | < 0.01 µM (active) | 0.0116 µM (active) | < 0.01 µM (active) | 0.0109 µM (active) | < 0.01 µM (active) | < 0.01 µM (active) | 0.0472 µM (active) | < 0.01 µM (active) | < 0.01 µM (active) | 0.698 µM (active) | 0.438 µM (active) | < 0.01 µM (active) | 0.0261 µM (active) | 0.0247 µM (active) | < 0.01 µM (active) | < 0.01 µM (active) | 51.8 µM (inactive) | < 0.0259 µM (active) | < 0.01 µM (active) | 0.014 µM (active)
CCOC(=O)c1cccc(/N=N/Nc2cccc(C(=O)OCC)c2)c1 | 74.5 µM (inactive) | > 100 µM (inactive) | > 100 µM (inactive) | 9.12 µM (inactive) | > 100 µM (inactive) | 16.4 µM (inactive) | 43.5 µM (inactive) | 23.9 µM (inactive) | 26.8 µM (inactive) | 20.9 µM (inactive) | 78.7 µM (inactive) | 34.4 µM (inactive) | 19.1 µM (inactive) | 20.6 µM (inactive) | 1.09 µM (active) | 68.7 µM (inactive) | > 100 µM (inactive) | 56.9 µM (inactive) | 71.8 µM (inactive) | 17.7 µM (inactive)
CS(=O)(=O)c1cc(=O)c2ccccc2s1 | 18.4 µM (inactive) | 14 µM (inactive) | 1.84 µM (inactive) | 20.5 µM (inactive) | 6.68 µM (inactive) | 11 µM (inactive) | 13.7 µM (inactive) | 1.24 µM (inactive) | 2.61 µM (inactive) | 2.9 µM (inactive) | 11.8 µM (inactive) | 17.6 µM (inactive) | 3.91 µM (inactive) | 17.5 µM (inactive) | 2.07 µM (inactive) | 1.86 µM (inactive) | 3.08 µM (inactive) | 3.54 µM (inactive) | 12.2 µM (inactive) | 15.7 µM (inactive)
COc1cc2c(cc1OC)C(=O)/C(=C/c1ccccc1)C2 | > 100 µM (inactive) | 78.3 µM (inactive) | 16.9 µM (inactive) | 52.5 µM (inactive) | 86.5 µM (inactive) | > 87.7 µM (inactive) | > 81.8 µM (inactive) | 47 µM (inactive) | > 100 µM (inactive) | > 85.5 µM (inactive) | > 100 µM (inactive) | > 58.9 µM (inactive) | > 34.8 µM (inactive) | > 100 µM (inactive) | 29.4 µM (inactive) | 94 µM (inactive) | 63.5 µM (inactive) | > 100 µM (inactive) | 30.5 µM (inactive) | > 83.8 µM (inactive)
C/C(C=O)=C/[C@@]1(C)O[C@@H](C)[C@@](C)(O)[C@@H]1O | > 100 µM (inactive) | 17.4 µM (inactive) | > 100 µM (inactive) | 63.1 µM (inactive) | 95.5 µM (inactive) | 31 µM (inactive) | > 100 µM (inactive) | 19 µM (inactive) | 49.1 µM (inactive) | > 100 µM (inactive) | > 100 µM (inactive) | 47.5 µM (inactive) | > 100 µM (inactive) | 61.1 µM (inactive) | 2.58 µM (inactive) | 87.3 µM (inactive) | > 100 µM (inactive) | 22.1 µM (inactive) | 43.7 µM (inactive) | 1.3 µM (inactive)
C[C@H](C(O)CC(=O)C(C)(C)O)[C@H]1CC[C@@]2(C)[C@@H]3CC[C@H]4C(C)(C)[C@@H](OC5OC(COC6OC(CO)C(O)C(O)C6O)C(O)C(O)C5O)CC[C@]4(C)C3=CC[C@]12C (stereo partly drawn) | > 100 µM (inactive) | > 100 µM (inactive) | > 100 µM (inactive) | > 100 µM (inactive) | > 100 µM (inactive) | > 100 µM (inactive) | > 100 µM (inactive) | > 100 µM (inactive) | > 100 µM (inactive) | > 100 µM (inactive) | > 100 µM (inactive) | > 100 µM (inactive) | > 100 µM (inactive) | > 100 µM (inactive) | > 100 µM (inactive) | > 100 µM (inactive) | > 100 µM (inactive) | > 100 µM (inactive) | > 100 µM (inactive) | > 100 µM (inactive)
CC(=O)Nc1ccc(N2C(=O)/C(=C\c3cccc(Oc4ccccc4)c3)S(=O)(=O)C2c2ccccc2)cc1 (stereo not drawn) | > 100 µM (inactive) | > 100 µM (inactive) | 30.3 µM (inactive) | > 100 µM (inactive) | 41 µM (inactive) | 60.8 µM (inactive) | 66.2 µM (inactive) | 71.8 µM (inactive) | 49.4 µM (inactive) | 37.8 µM (inactive) | > 100 µM (inactive) | 61.1 µM (inactive) | > 100 µM (inactive) | 90.2 µM (inactive) | 31.4 µM (inactive) | 33.3 µM (inactive) | 35.9 µM (inactive) | > 100 µM (inactive) | 83.2 µM (inactive) | 29.7 µM (inactive)
Clc1ccc(-c2nc3cc(Cl)ccc3[nH]2)cc1 | 29.3 µM (inactive) | 29.8 µM (inactive) | 39.9 µM (inactive) | 34.4 µM (inactive) | 29.1 µM (inactive) | 27.6 µM (inactive) | 50 µM (inactive) | 19.6 µM (inactive) | 28.9 µM (inactive) | 58.1 µM (inactive) |  | 27.2 µM (inactive) | > 100 µM (inactive) | 41.4 µM (inactive) | 32.7 µM (inactive) | 42.6 µM (inactive) | 26.5 µM (inactive) | 43.3 µM (inactive) | 32.7 µM (inactive) | 26.2 µM (inactive)
O=C1/C(=C/c2ccccc2)N=C(c2ccccc2)N1n1c(-c2ccccc2)nc2ccccc2c1=O | 47.6 µM (inactive) | > 100 µM (inactive) | 33.3 µM (inactive) | > 100 µM (inactive) | 35.6 µM (inactive) | 87.9 µM (inactive) | 64 µM (inactive) | 46.6 µM (inactive) | 57.9 µM (inactive) | 60 µM (inactive) | > 100 µM (inactive) | 57.7 µM (inactive) | 86.5 µM (inactive) | 52.8 µM (inactive) | 31 µM (inactive) | > 100 µM (inactive) | > 100 µM (inactive) | > 100 µM (inactive) | 31 µM (inactive) | 83.2 µM (inactive)
COC(=O)C1=CC2CCCC1(O)C(C(C)=O)C2 (stereo not drawn) | 51.9 µM (inactive) | > 100 µM (inactive) | 24.2 µM (inactive) | > 75 µM (inactive) | 16.6 µM (inactive) | > 100 µM (inactive) | > 100 µM (inactive) | 15.5 µM (inactive) | > 100 µM (inactive) | > 62.7 µM (inactive) | > 100 µM (inactive) | 61.2 µM (inactive) | > 70.1 µM (inactive) | > 100 µM (inactive) | 31.3 µM (inactive) | > 61.8 µM (inactive) | 27.4 µM (inactive) | > 100 µM (inactive) | > 94.4 µM (inactive) | 17.3 µM (inactive)
CCOC(=O)c1nc2ccccc2nc1NCc1ccc(OC)c(OC)c1 | > 100 µM (inactive) | > 100 µM (inactive) | > 100 µM (inactive) | > 100 µM (inactive) | > 100 µM (inactive) | > 100 µM (inactive) | > 100 µM (inactive) | > 100 µM (inactive) | > 100 µM (inactive) | > 100 µM (inactive) | > 100 µM (inactive) | > 100 µM (inactive) | 27.8 µM (inactive) |  | > 100 µM (inactive) | > 100 µM (inactive) | > 100 µM (inactive) | > 100 µM (inactive) | > 100 µM (inactive) | > 100 µM (inactive)
CCO[C@@]12CCC3CC4CC[C@@](OCC)(O1)C4C32 (stereo partly drawn) | > 100 µM (inactive) | > 100 µM (inactive) | > 100 µM (inactive) | > 100 µM (inactive) | > 100 µM (inactive) | > 100 µM (inactive) | > 100 µM (inactive) | > 100 µM (inactive) | > 100 µM (inactive) | > 100 µM (inactive) | > 100 µM (inactive) | > 100 µM (inactive) | > 100 µM (inactive) | > 100 µM (inactive) | > 100 µM (inactive) | > 100 µM (inactive) | > 100 µM (inactive) | > 100 µM (inactive) | > 100 µM (inactive) | > 100 µM (inactive)
COc1cc2c(/C=C3/C(=O)N(C)c4ccccc43)c(Cl)[nH]c2cc1C | 0.361 µM (active) | 0.101 µM (active) | 0.069 µM (active) | 0.286 µM (active) | 0.3 µM (active) | 0.0277 µM (active) | 0.449 µM (active) | 0.183 µM (active) | 0.116 µM (active) | 0.0906 µM (active) | 0.581 µM (active) | 0.29 µM (active) | 0.746 µM (active) | 0.253 µM (active) | 0.274 µM (active) | 0.33 µM (active) | 1.46 µM (inactive) | 0.169 µM (active) | 0.179 µM (active) | 2.28 µM (inactive)
